Laboratory results from ChEMBL document CHEMBL5576094, “A Diterpenoid of the Medicinal Plant Andrographis paniculata Targets Cutaneous TRPV3 Channel and Relieves Itch” (J Nat Prod, 2024).

What was measured:
Type in all cases: functional
[1] = system: Mus musculus; assay: Antipruritic activity in histamine-induced scratching ICR mouse model assessed as number of scratching bouts at 10 mg/kg, po administered via gavage pretreated for 30 mins followed by histamine stimulation and measured for 30 mins (reference value: 123 +/- 6); settings: time 60 min, 1 h
[2] = system: Mus musculus; assay: Antipruritic activity in histamine-induced scratching ICR mouse model assessed as inhibition of neck scratching behavior at 10 mg/kg, po administered via gavage pretreated for 30 mins followed by histamine stimulation and measured for 30 mins relative to control; settings: 1 h, time 60 min
[3] = species on record: Mus musculus; assay: Antipruritic activity in carvacrol-induced scratching C57B/6 mouse model assessed as inhibition of neck scratching behavior at 10 uM, ID pretreated for 30 mins followed by carvacrol stimulation and measured for 30 mins relative to control; settings: C57B/6, 1 h, time 60 min
[4] = species on record: Mus musculus; assay: Antipruritic activity in carvacrol-induced scratching C57B/6 mouse model assessed as inhibition of neck scratching behavior at 50 uM, ID pretreated for 30 mins followed by carvacrol stimulation and measured for 30 mins relative to control; settings: C57B/6, 1 h, time 60 min

SMILES	Activity [1]	inhibition in vivo at 10 mg/kg [2]	inhibition in vivo at 10 µM [3]	inhibition in vivo at 50 µM [4]
CCOC(=O)N1CCC(=C2c3ccc(Cl)cc3CCc3cccnc32)CC1 [LORATADINE]	72	~40%	–	–
CCCCOc1ccc(C(=O)CCN2CCCCC2)cc1 [DYCLONINE]	–	–	~41%	100%
